Experiments:
Bacillus subtilis = assay: Binding dissociation constant towards 3'-Fl-AM1A-Rhd in Bacillus subtilis tyrS; format: functional
Nucleic Acid = assay: Maximum Frel value for binding to 3'-Fl-AM1A-Rhd in Bacillus subtilis tyr

SMILES	Kd (Bacillus subtilis)	Frel (Nucleic Acid)
NCCC(O)C(=O)N[C@@H]1C[C@H](N)[C@@H](O[C@H]2O[C@H](CN)[C@@H](O)[C@H](O)[C@H]2O)[C@H](O)[C@H]1O[C@H]1O[C@H](CO)[C@@H](O)[C@H](N)[C@H]1O (single isomer, unassigned) [AMIKACIN]	760 µM	0.29
[H]/N=C(/N)N[C@H]1[C@H](O)[C@@H](O)[C@H](O[C@@H]2O[C@@H](C)[C@](O)(C=O)[C@H]2O[C@@H]2O[C@@H](CO)[C@H](O)[C@@H](O)[C@@H]2NC)[C@@H](N/C(N)=N\[H])[C@@H]1O (stereo in doubt) [STREPTOMYCIN]	790 µM	0.34
NC[C@H]1O[C@H](O[C@H]2[C@H](O)[C@@H](O[C@H]3O[C@H](CO)[C@@H](O)[C@H](N)[C@H]3O)[C@H](N)C[C@@H]2N)[C@H](N)[C@@H](O)[C@@H]1O [BEKANAMYCIN]	150 µM	0.38
NC[C@@H]1O[C@H](O[C@H]2[C@@H](O)[C@H](O[C@@H]3[C@@H](O)[C@H](N)C[C@H](N)[C@H]3O[C@H]3O[C@H](CN)[C@@H](O)[C@H](O)[C@H]3N)O[C@@H]2CO)[C@H](N)[C@@H](O)[C@@H]1O [FRAMYCETIN]	8.5 µM	0.46
CN[C@@H]1[C@@H](O)[C@@H](O[C@@H]2[C@@H](O)[C@H](O[C@H]3O[C@H]([C@@H](C)NC)CC[C@H]3N)[C@@H](N)C[C@H]2N)OC[C@]1(C)O [GENTAMICIN C1]	120 µM	0.8
CN[C@@H]1[C@@H](O)[C@@H](O[C@@H]2[C@@H](O)[C@H](O[C@H]3O[C@H](C(C)N)CC[C@H]3N)[C@@H](N)C[C@H]2N)OC[C@]1(C)O (stereo partly drawn) [GENTAMICIN C2]	120 µM	0.8
NC[C@@H]1O[C@@H](O[C@H]2[C@H](O)[C@@H](O[C@H]3O[C@H](CO)[C@@H](O)[C@H](N)[C@H]3O)[C@H](N)C[C@@H]2N)[C@@H](O)[C@H](O)[C@H]1O [KANAMYCIN A]	210 µM	–
NC[C@H]1O[C@H](O[C@H]2[C@H](O)[C@@H](O[C@H]3O[C@H](CO)[C@@H](O)[C@H](N)[C@H]3O)[C@H](N)C[C@@H]2N)[C@H](O)[C@@H](O)[C@@H]1O [KANAMYCIN A]	–	0.21
NC[C@@H]1O[C@H](O[C@H]2[C@@H](O)[C@H](O[C@@H]3[C@@H](O)[C@H](N)C[C@H](N)[C@H]3O[C@H]3O[C@H](CO)[C@@H](O)[C@H](O)[C@H]3N)O[C@@H]2CO)[C@H](N)[C@@H](O)[C@@H]1O [PAROMOMYCIN]	50 µM	0.41
NC[C@H]1O[C@H](O[C@H]2[C@H](O)[C@@H](O[C@H]3O[C@H](CO)[C@@H](O)[C@H](N)[C@H]3O)[C@H](N)C[C@@H]2N)[C@H](N)C[C@@H]1O [TOBRAMYCIN]	38 µM	0.33

Reference: ChEMBL document CHEMBL1143547, “Fluorescence resonance energy transfer studies of aminoglycoside binding to a T box antiterminator RNA” (Bioorg Med Chem Lett, 2005)
